Results from patent publication US4160839A, “Carbamyltriazole insecticides” (priority 1976, dated 1979).

Tests used:
insects = test: Insecticidal activity (general statement); details: statement in words
[1] = Oral toxicity test on laboratory rats; details: rat, in vivo, in corn oil as additive to the diet, read-out: LD50 (oral lethal dose for 50 percent kill of laboratory rats)
Method: (§1) Results obtained with the novel insecticides of this invention at various concentrations of active chemical are tabulated below. The ratings given are for averages of three or more replicates. The oral lethal dose for 50 percent kill of laboratory rats is also recorded in the table. In conducting the toxicity tests on rats, 0.01 g of active chemical per ml in corn oil is employed as an additive to the diet of the animals.

[2] = system: Mexican bean beetle (MBB) larvae; test: Spray test, Mexican bean beetle (MBB) larvae on bean leaves; format: in vivo; details: approx. 48 h after spraying
Method: (§2) Three 5 oz paper cups containing Henderson dwarf lima bean plants and one 5 oz paper cup containing Orange Gem nasturtiums, all growing in vermiculite, are placed on a turntable and sprayed to thorough wetness with 25 ml of a solution of the candidate chemical at the appropriate concentration. Nasturtiums were already infested with 50-100 bean aphids (BA). A bean plant in one paper cup was already infested with 50-100 two-spotted mites (TSM). Leaves from the two remaining bean plants are removed following spraying and placed in disposable petri dishes with 5 southern armyworm (SA) larvae in one petri dish, and 5 Mexican bean beetle (MBB) larvae in the other petri dish. The rating is done approximately 48 hours after spraying as follows:
(§3) So as to obtain more meaningful results, all tests are performed at the same time of day, whenever possible, usually in the forenoon. Temperature,illumination and humidity are the same in all tests. Atmospheric pressure is not controlled.
as §1

bean aphids (BA) = test: Spray test, bean aphids (BA) on nasturtiums; format: in vivo; details: approx. 48 h after spraying
Method: as §2, §3, §1

two-spotted mites (TSM) = test: Spray test, two-spotted mites (TSM) on bean plants; format: in vivo; details: approx. 48 h after spraying
Method: as §2, §3, §1

[3] = system: Southern Corn Rootworm (SCR); test: Southern Corn Rootworm (SCR) soil treatment test, root feeding damage on corn; format: in vivo; parameters: scale not given here; details: nine days after treatment
Method: Three 5 oz paper cups planted each with one kernel of DeKalb XL-361 corn are treated two days after planting with 10 ml of a 125 ppm solution of the candidate compound. Compounds with high efficacy are treated at lower concentrations. The experiment is a 4×5 factorial in a randomized complete block design with three replications. The tests are evaluated nine days after treatment. The roots are inspected under a dissecting microscope and rated as follows:
as §3, §1

[4] = system: southern armyworm (SA) larvae; test: Spray test, southern armyworm (SA) larvae on bean leaves; format: in vivo; details: approx. 48 h after spraying
Method: as §2, §3, §1

Compound	LD50 [1] [mg/kg]	MBB rating (larvae dead) ([2]; 15 ppm)	MBB rating (larvae dead) ([2]; 31 ppm)	MBB rating (larvae dead) ([2]; 62 ppm)	MBB rating (larvae dead) ([2]; 125 ppm)	MBB rating (larvae dead) ([2]; 250 ppm)	MBB rating (larvae dead) ([2]; 500 ppm)	BA rating (dead) (bean aphids (BA); 2 ppm)	BA rating (dead) (bean aphids (BA); 4 ppm)	BA rating (dead) (bean aphids (BA); 8 ppm)	BA rating (dead) (bean aphids (BA); 15 ppm)	BA rating (dead) (bean aphids (BA); 31 ppm)	BA rating (dead) (bean aphids (BA); 62 ppm)	BA rating (dead) (bean aphids (BA); 125 ppm)	BA rating (dead) (bean aphids (BA); 250 ppm)	BA rating (dead) (bean aphids (BA); 500 ppm)	TSM rating (dead adults) (two-spotted mites (TSM); 500 ppm)	SA rating (larvae dead) ([4]; 15 ppm)	SA rating (larvae dead) ([4]; 31 ppm)	SA rating (larvae dead) ([4]; 500 ppm)	also measured
C#CCSc1nc(C2CCCCC2)nn1C(=O)N(C)C [1-N,N-dimethylcarbamyl-3-cyclohexyl-5-propargylthio-1,2,4-triazole]																					insecticidal activity (insects): virtually useless as insecticides
C=CCSc1nc(C(C)C)nn1C(=O)N(C)C [R=2-propenyl (allyl), R'=isopropyl]	10 to 50	0 (no larvae dead)	0 (no larvae dead)	2 (26-50% larvae dead)	5 (100% larvae dead)	5 (100% larvae dead)	5 (100% larvae dead)	0 (none dead)	2 (26-50% dead)	4 (76-99% dead)	5 (100% dead)	5 (100% dead)	5 (100% dead)	5 (100% dead)	5 (100% dead)	5 (100% dead)	0 (no dead adults)	0 (no larvae dead)	0 (no larvae dead)	5 (100% larvae dead)	SCR Rating (root feeding damage) ([3]; 3 ppm): 3.5; SA rating (larvae dead) ([4]; 62 ppm): 0 (no larvae dead); SA rating (larvae dead) ([4]; 125 ppm): 0 (no larvae dead); SA rating (larvae dead) ([4]; 250 ppm): 0 (no larvae dead)
C=CCSc1nc(C(C)(C)C)nn1C(=O)N(C)C [R=2-propenyl (allyl), R'=tert.butyl, 1-Dimethylcarbamyl-3-tert.butyl-5-allylthio-1H-1,2,4-triazole]	17	0 (no larvae dead)	0 (no larvae dead)	1 (1 -25% larvae dead)	5 (100% larvae dead)	5 (100% larvae dead)	5 (100% larvae dead)	2 (26-50% dead)	3 (51-75% dead)	4 (76-99% dead)	5 (100% dead)	5 (100% dead)	5 (100% dead)	5 (100% dead)	5 (100% dead)	5 (100% dead)	0 (no dead adults)			1 (1-25% larvae dead)	SCR Rating (root feeding damage) ([3]; 25 ppm): 2.5
C#CCSc1nc(C2CC2)nn1C(=O)N(C)C [R=2-propynyl (propargyl), R'=cyclopropyl]	10	1 (1 -25% larvae dead)	1 (1 -25% larvae dead)	3 (51-75% larvae dead)	5 (100% larvae dead)	5 (100% larvae dead)	5 (100% larvae dead)	1 (1-25% dead)	3 (51-75% dead)	5 (100% dead)	5 (100% dead)	5 (100% dead)	5 (100% dead)	5 (100% dead)	5 (100% dead)	5 (100% dead)	5 (100% dead adults)	0 (no larvae dead)	0 (no larvae dead)	5 (100% larvae dead)	TSM rating (dead adults) (two-spotted mites (TSM); 15 ppm): 0 (no dead adults); TSM rating (dead adults) (two-spotted mites (TSM); 31 ppm): 0 (no dead adults); TSM rating (dead adults) (two-spotted mites (TSM); 62 ppm): 2 (26-50% dead adults); TSM rating (dead adults) (two-spotted mites (TSM); 125 ppm): 4 (76-99% dead adults); TSM rating (dead adults) (two-spotted mites (TSM); 250 ppm): 4 (76-99% dead adults); SCR Rating (root feeding damage) ([3]; 25 ppm): 1.3; SCR Rating (root feeding damage) ([3]; 50 ppm): 4.3; SCR Rating (root feeding damage) ([3]; 100 ppm): 4.3; SA rating (larvae dead) ([4]; 62 ppm): 0 (no larvae dead); SA rating (larvae dead) ([4]; 125 ppm): 2 (26-50% larvae dead); SA rating (larvae dead) ([4]; 250 ppm): 4 (76-99% larvae dead)
C#CCSc1nc(C(C)C)nn1C(=O)N(C)C [R=2-propynyl, R'=isopropyl]	~50	0 (no larvae dead)	4 (76-99% larvae dead)	5 (100% larvae dead)	5 (100% larvae dead)	5 (100% larvae dead)	5 (100% larvae dead)	0 (none dead)	3 (51-75% dead)		5 (100% dead)	5 (100% dead)		5 (100% dead)	5 (100% dead)	5 (100% dead)	0 (no dead adults)	0 (no larvae dead)	0 (no larvae dead)	5 (100% larvae dead)	SCR Rating (root feeding damage) ([3]; 12 ppm): 0.3; SCR Rating (root feeding damage) ([3]; 25 ppm): 1.3; SCR Rating (root feeding damage) ([3]; 50 ppm): 2.7; SA rating (larvae dead) ([4]; 62 ppm): 0 (no larvae dead); SA rating (larvae dead) ([4]; 125 ppm): 3 (51-75% larvae dead); SA rating (larvae dead) ([4]; 250 ppm): 5 (100% larvae dead)
C#CCSc1nc(C(C)(C)C)nn1C(=O)N(C)C [R=2-propynyl, R'=tert.butyl]	> 50	4 (76-99% larvae dead)	5 (100% larvae dead)	5 (100% larvae dead)	5 (100% larvae dead)	5 (100% larvae dead)	5 (100% larvae dead)		5 (100% dead)	5 (100% dead)	5 (100% dead)	5 (100% dead)	5 (100% dead)	5 (100% dead)	5 (100% dead)	5 (100% dead)	1 (1-25% dead adults)	0 (no larvae dead)	0 (no larvae dead)	5 (100% larvae dead)	MBB rating (larvae dead) ([2]; 4 ppm): 0 (no larvae dead); MBB rating (larvae dead) ([2]; 8 ppm): 0 (no larvae dead); SCR Rating (root feeding damage) ([3]; 6 ppm): 3.5; SCR Rating (root feeding damage) ([3]; 12 ppm): 4.5; SA rating (larvae dead) ([4]; 62 ppm): 0 (no larvae dead); SA rating (larvae dead) ([4]; 125 ppm): 2 (26-50% larvae dead); SA rating (larvae dead) ([4]; 250 ppm): 5 (100% larvae dead)
